Drawing on PubChem BioAssay AID488890 (Southern Research Specialized Biocontainment Screening …, 2010), this text covers IC50 for 70 compounds.

The test has as its system Mycobacterium tuberculosis non-replicating, growth inhibition. In words: growth inhibition of non-replicating M. tuberculosis (AID 488890).

In general, IC50 refers to the midpoint of a concentration-inhibition curve.

Inconclusive results are not listed. Activity calls are given as the source filed them. No rule for the calls is given here. Bounds are passed on as bounds.

With `CC1Cc2cc(/C=C3/SC(=S)NC3=O)ccc2O1` (stereo not given), the IC50 was 3.01 µM.

With `N=c1n(CCN2CCCCC2)c2ccccc2n1CC(=O)c1ccc(Cl)c(Cl)c1`, the IC50 is 21.5 µM (inactive).

For `O=C(COc1ccc(Br)cc1)N/N=C1/SCC(=O)N1Cc1ccccc1`, the IC50 is 13 µM (inactive).

`O=C(N/N=C/c1cccc2cccnc12)[C@H]1C[C@@H]1c1ccccc1`: the IC50 was 13.1 µM (inactive).

For `C/C(=N\NC(=O)c1ccc(CN2CCc3ccccc3C2)cc1)c1ccccc1O`, the IC50 is 0.7 µM.

With `Cc1[nH]n(-c2ccccc2)c(=O)c1C=Nc1cnc2ccccc2c1`, the IC50 is 6.23 µM.

Regarding `O=C(COC(=O)c1ccc(O)cc1O)c1ccc2c(c1)OCO2`, the IC50 was 25.9 µM (inactive).

For `CC(OC(=O)c1ccc([N+](=O)[O-])s1)C(=O)NC1CCCCC1C` (stereo not given), the IC50 is 0.24 µM.

Regarding `Cc1nnc(N/N=C/c2cccc(OCc3ccc(Cl)c(Cl)c3)c2)n1N`, the IC50 is 3.37 µM.

Turning to `O=C(NC(=S)Nc1ccc(F)cc1)C1CCCCC1`, the IC50 was 0.71 µM.

Turning to `S=C1SCN(Cc2cccnc2)CN1Cc1ccccc1`, the IC50 is 14.9 µM (inactive).

For the compound `Cc1cc(C)n2[nH]c(=O)c(N=Nc3cccc(C(F)(F)F)c3)c2n1`, the IC50 was 4.14 µM.

On to `O=C(OCn1nnc2ccccc2c1=O)c1ccc(Br)o1`, for which the IC50 is 11.6 µM (inactive).

As for `Cc1nnc(N/N=C/c2ccc(-c3ccccc3F)o2)n1N`, the IC50 was 10.6 µM (inactive).

On to `O=[N+]([O-])c1c(Nc2ccccn2)cc(Cl)c2nonc12`, for which the IC50 is < 0.1 µM.

`O=C(COc1ccc(Cl)cc1)OCC(=O)N1CCCc2ccccc21`: the IC50 is 12.9 µM (inactive).

`CC(C)c1ccc(OCC(=O)NC2=NCCS2)cc1`: the IC50 is 22.2 µM (inactive).

Consider `COC(CNC(=O)c1ccc2c3c(onc13)-c1ccccc1C2=O)OC`, for which the IC50 is 2.4 µM.

Take `Cc1ccc(OCC(=O)OCc2c(C)noc2C)cc1C`: the IC50 was 11.7 µM (inactive).

`Cc1ccc(C(=O)OCC(=O)N2CCCCCC2)c(O)c1`: the IC50 was 8.95 µM.

`O=C(NNc1nc2ccccc2s1)Nc1ccc(F)cc1`: the IC50 was 14.4 µM (inactive).

As to `COc1ccc(-c2noc(CCC(=O)Nc3cccc(C)c3)n2)cc1`, the IC50 is 11.5 µM (inactive).

As for `Cc1ccnc(NS(=O)(=O)c2ccc(NC(=O)c3ccc([N+](=O)[O-])s3)cc2)n1`, the IC50 was 8.3 µM.

With `O=C(CN1CCC(Cc2ccccc2)CC1)NC(=O)NC1CCCCC1`, the IC50 was 19 µM (inactive).

As for `O=C(Nc1nc2ccccc2n1CCN1CCCC1)c1ccc(Cl)cc1`, the IC50 is 12.5 µM (inactive).

On to `COc1cc(C(=O)N/N=C/c2cc([N+](=O)[O-])cs2)cc(OC)c1OC`, for which the IC50 is 3.58 µM.

Turning to `COc1ccc(-c2cc(C(F)(F)F)nc(S(C)(=O)=O)n2)cc1`, the IC50 was 2.87 µM.

For the compound `Cc1ccc2c(c1)c(C1=c3ccccc3=NC1=O)c(O)n2C`, the IC50 is 4.42 µM.

Regarding `COc1ccc(NC(=O)COc2ccccc2)cc1Cl`, the IC50 was 22.2 µM (inactive).

For `COC(=O)C1=C(N)OC2=C(C(=O)CC(C)(C)C2)C1c1cccnc1` (stereo not given), the IC50 is 14.5 µM (inactive).

Take `O=C(OCC(=O)N1CCc2ccccc21)c1ccc([N+](=O)[O-])cc1`: the IC50 was 12.5 µM (inactive).

For `Cc1cc(C=C2C(=O)NC(=S)NC2=O)c(C)n1C1CCCC1`, the IC50 is 3.88 µM.

With `O=c1c2ccc(Cl)cc2nc(-c2ccc([N+](=O)[O-])cc2)n1O`, the IC50 was 1.3 µM.

Turning to `C#CCSc1nnc(-c2ccc([N+](=O)[O-])cc2)o1`, the IC50 is < 0.1 µM.

For `CN(C)CC/C=C1\c2cc(Cl)ccc2Sc2cc(F)c(F)cc21`, the IC50 was 20.2 µM (inactive).

As for `O=C(NCC1CCN(c2ccc(S(=O)(=O)N3CCOCC3)cc2)CC1)c1ccc(Cl)cc1`, the IC50 is 24.1 µM (inactive).

Regarding `COc1cccc(OC(=O)c2cc3ccccc3oc2=O)c1`, the IC50 was 14.2 µM (inactive).

As for `CC(C)(C)OC(=O)NNc1c2ccccc2nc2ccccc12`, the concentration for half-maximal inhibition (IC50) is 4.09 µM.

Turning to `CC(=O)Nc1nc2ccccc2n1Cc1ccc(C)cc1`, the IC50 is 3.21 µM.

For the compound `Cc1cc2cc(CNC(=O)C3CCCC3)ccc2n1C`, the IC50 is 17.5 µM (inactive).

`CS(=O)(=O)Cc1nc2ccccc2oc1=O`: the IC50 was 3.18 µM.

For `Cc1cc(OCc2cc(C(=O)N(C)CCc3cnn(C)c3)no2)cc(C)c1Cl`, the IC50 is 30.6 µM (inactive).

As for `C=CCNCC(=O)N1N=C(c2ccc3ccccc3c2)CC1c1ccc(OC)cc1` (stereo not given), the IC50 is 20.6 µM (inactive).

With `Cc1cccc(NC(=O)c2cc3ccccc3o2)c1`, the IC50 is 3.23 µM.

Regarding `CC(C)CCCn1c(O)c(/C=C2/C=CC=N2)c(=O)[nH]c1=O`, the IC50 is 0.27 µM.

Turning to `c1ccc(-c2nc3ccccn3c2NC2CCCC2)nc1`, the IC50 is 24.9 µM (inactive).

For `COc1cc(CNC2CCCC2)cc(Cl)c1OCc1ccc(F)cc1`, the IC50 is 17.5 µM (inactive).

In the case of `CCOC(=O)Cn1c(-c2ccccc2)ccc(C#N)c1=O`, the IC50 was 4.71 µM.

Take `O=C(Nc1nc(-c2ccccn2)cs1)c1ccc([N+](=O)[O-])o1`: the IC50 is 25.5 µM (inactive).

For `Cc1cc(-c2c(C)[nH]n(-c3ccccc3)c2=O)n[nH]1`, the IC50 is 29.2 µM (inactive).

Take `CC1CC(C)CN(C(=O)COC(=O)c2ccc([N+](=O)[O-])o2)C1` (stereo not given): the IC50 was 5.18 µM.

Regarding `Cc1ccc(C(=O)Nc2nccs2)cc1`, the IC50 was 19.8 µM (inactive).

In the case of `COc1ccccc1C1=Nn2c(nnc2C2CCCCC2)SC1`, the IC50 is 13.9 µM (inactive).

Take `O=C(c1ccc(Br)o1)N1CCC(Cc2ccccc2)CC1`: the IC50 is 3.77 µM.

In the case of `CC(C)OC(=O)COc1ccc(-c2ccccc2)cc1`, the IC50 is 3.25 µM.

Take `O=C(Nc1nnc(C2=COCCO2)o1)c1ccc(F)cc1`: the IC50 was 15.9 µM (inactive).

On to `CC(Oc1ccc(Cl)cc1)C(=O)NNC(=S)NC(=O)c1ccco1` (stereo not given), for which the IC50 is 22.3 µM (inactive).

Take `O=C(NNc1nc2ccccc2s1)c1ccc(F)cc1`: the IC50 is 43.8 µM (inactive).

As for `Cc1cc(Nc2ccccc2)n(-c2nc3ccccc3[nH]2)n1`, the IC50 was 3.88 µM.

Take `CC1=NN(C(=O)c2ccccc2F)C(O)(c2ccc(Cl)cc2)C1` (stereo not given): the 50% inhibitory concentration (IC50) is 0.5 µM.

Regarding `COc1ccc(C(=O)COC(=O)c2ccc(Cl)nc2)c(OC)c1`, the IC50 was 10.7 µM (inactive).

On to `Cn1cccc1/C=C1/C(=O)NC(=S)N(Cc2ccc(F)cc2)C1=O`, for which the IC50 is 6.03 µM.

With `O=C(CNC(=O)c1ccccc1Cl)N/N=C/c1ccc([N+](=O)[O-])s1`, the IC50 was 23.5 µM (inactive).

As to `O=C(COc1ccc2ccccc2c1)NNC(=O)c1cccs1`, the IC50 was 4.52 µM.

Regarding `COc1ccc(Cc2nnc(-c3ccccc3)o2)cc1`, the IC50 was 0.19 µM.

For the compound `O=C1NC(=O)C(=Cc2ccc(Oc3ccc([N+](=O)[O-])cc3)cc2)C(=O)N1`, the IC50 is 16.5 µM (inactive).

`CC(C)OC(=O)C(C)Oc1ccc(C(=O)NCCc2ccccc2)cc1` (stereo not given): the IC50 is 11.6 µM (inactive).

With `Cc1cc(C)n(C(=O)c2ccc([N+](=O)[O-])cc2[N+](=O)[O-])n1`, the IC50 is 24.3 µM (inactive).

`CCOC(=O)Nc1ccc2c(c1)N(C(=O)CCCl)c1ccccc1[S@]2=O`: the IC50 was 3.68 µM.

As to `CCN(CC)Cc1ccc(NC(=O)c2sc3cc(Cl)ccc3c2Cl)cc1`, the IC50 is 11.2 µM (inactive).
